Tests used:
Format in all cases: cell-based, human
[1] = system: cell line 12 (ATL cell line); assay: Lenalidomide sensitivity of cell types of Example 2, cell line 12
Text: (§1) Twenty-three types of cells from, e.g., ATL cell lines, lymphoma cell lines, leukemia cell lines, healthy peripheral blood mononuclear cells (PBMCs), and human T-lymphotropic virus 1 (HTLV-1) carrier's PBMCs are employed in this example.

RPMI-8226 = assay: CellTiter cell proliferation assay, RPMI-8226 (multiple myeloma, irresponsive control); details: RPMI-8226 multiple myeloma control cell line
Text: (§2) ATL cell lines Hut102, ED40515, S1T, OATL4, and OATL9, HTLV-1 transformed cell lines MT-2, MT-4, and C8166, PTCL cell line Hut78, other T-cell Jurkat, MOLT4, HL60, and monocyte cell line K562 are laboratory stocks (Dr. Hidekatsu Iha, Oita University, and Prof. Kazuhiro Morishita, The University of Miyazaki). ATL cell lines ST1, KOB, KK1, and SO4 are gift from Dr. Hiroo Hasegawa, Nagasaki University). NCI-H929 and RPMI-8226 were purchased from American Type Culture Collection (ATCC: Manassas, Va.). Each cell line was maintained with RPMI-1640 culture media supplemented with 15% fetal bovine serum (FBS: Equitech-Bio Inc., Kerrville, Tex.), penicillin G (50 U/ml), and streptomycin (50 μg/ml). Antibiotics were purchased from Sigma-Aldrich Co. LLC. (St. Louis, Mo.).
(§3) Cells were plated in 24-well plates at 5×10^4 cells per 1.5 mL RPMI1640 and kept in 5% CO2 incubator for 24 hours (cell number should reach 1×10^5). […] After 10 minutes incubation at room temperature, the reaction mixture in 96-well plates was read by Glomax luminometer (Promega). Average values and standard deviation were obtained from four independent experiments.
(§4) Relative CellTiter values compared to untreated control cells at day 0 were plotted. […] In addition, OATL4 and KOB display 30% more reductions (see Table 2).

HuT78 = assay: CellTiter cell proliferation assay, HuT78 (HTLV-1 negative T-cell line); details: 10 μM lenalidomide for three days
Text: as §2, §3
Relative CellTiter values compared to untreated control cells at day 0 were plotted. […]
(§5) The CellTiter Assay was performed the same way as in Section 6.3, Example 3. Standard deviation was calculated from four experiments.

NCI-H929 = assay: CellTiter cell proliferation assay, NCI-H929 (multiple myeloma, responsive control); details: NCI-H929 multiple myeloma control cell line
Text: as §2, §3, §4

Hut102 = assay: CellTiter cell proliferation assay, Hut102 (ATL cell line)
Text: as §2, §3, §4, §5

KOB = assay: CellTiter cell proliferation assay, KOB (ATL cell line); details: see Table 2
Text: as §2, §3, §4

[2] = system: cell lines 1-4, 7, 10-11, and 13-23; assay: Lenalidomide sensitivity of cell types of Example 2, other cell lines
Text: as §1

MT-4 = assay: CellTiter cell proliferation assay, MT-4 (HTLV-1 transformed)
Text: as §2, §3, §4

[3] = system: cell line 6 (ATL cell line); assay: Lenalidomide sensitivity of cell types of Example 2, cell line 6
Text: as §1

[4] = system: cell line 5 (ATL cell line); assay: Lenalidomide sensitivity of cell types of Example 2, cell line 5
Text: as §1

MOLT4 = assay: CellTiter cell proliferation assay, MOLT4; details: MOLT-4; see Table 2
Text: as §2, §3, §4

OATL4 = assay: CellTiter cell proliferation assay, OATL4 (ATL cell line); details: see Table 2
Text: as §2, §3, §4

[5] = Homo sapiens, HuT-102, read-out: remaining activities (cell proliferation activity)

Nc1cccc2c1CN(C1CCC(=O)NC1=O)C2=O (centres unmarked) [lenalidomide, 1-oxo-2-(2,6-dioxopiperidin-3-yl)-4-aminoisoindoline]
sensitivity to lenalidomide [1]: weak/moderate-sensitive
response against lenalidomide treatment (FIG. 3) (RPMI-8226): insensitive
time-dependent cell growth (remaining growth activities, FIG. 4) (HuT78): almost unchanged
response against lenalidomide treatment (FIG. 3) (NCI-H929): sensitive
activity at 0.1 µM (Hut102; [5]): 64.2%
activity at 1 µM (Hut102; [5]): 68.3%
activity at 10 µM (Hut102; [5]): 46%
activity at 100 µM (Hut102; [5]): 53%
time-dependent cell growth (remaining growth activities, FIG. 4) (Hut102; HuT102, 10 μM lenalidomide for three days): significant decrease in cell growth
growth inhibition (KOB): 30%
reductions of cell proliferation activity (KOB): ≥ 30%
sensitivity to lenalidomide [2]: intense tolerance
sensitivity to lenalidomide (MT-4): moderate sensitive
sensitivity to lenalidomide [3]: weak/moderate-sensitive
sensitivity to lenalidomide [4]: highly-sensitive
growth inhibition (MOLT4): 30%
reductions of cell proliferation activity (OATL4): ≥ 30%

Source: patent US10338077B2, “Methods for determining drug efficacy for treatment of cancer ration of cereblon associated proteins” (Celgene Corporation, priority 2015, dated 2019)
